Measurements taken from the NIST ThermoML archive (doi:10.1007/s10765-007-0223-x).

Test: xn = mol fraction of the nth substance listed
Conditions: 101 kPa, Liquid; for speed of sound: Single path-length method

COC(C)(C)C [2-methoxy-2-methylpropane] + CC(C)CC(C)(C)C
Conditions	mass density [kg/m3]	speed of sound [m/s]
305.65 K, x1 = 0.049	683.001	–
305.65 K, x1 = 0.091	684.244	–
305.65 K, x1 = 0.197	687.643	–
305.65 K, x1 = 0.296	691.083	–
305.65 K, x1 = 0.394	694.818	–
305.65 K, x1 = 0.507	699.54	–
305.65 K, x1 = 0.603	703.873	–
305.65 K, x1 = 0.7	708.82	–
305.65 K, x1 = 0.79	713.83	–
305.65 K, x1 = 0.898	720.394	–
305.65 K, x1 = 0.951	723.998	–
305.65 K, x1 = 1	726.444	–
308.15 K, x1 = 0.049	680.9	1037.7
308.15 K, x1 = 0.091	682.124	1035
308.15 K, x1 = 0.197	685.47	1029
308.15 K, x1 = 0.296	688.864	1022.8
308.15 K, x1 = 0.394	692.544	1017.6
308.15 K, x1 = 0.507	697.225	1011
308.15 K, x1 = 0.603	701.481	1006.8
308.15 K, x1 = 0.7	706.365	1002
308.15 K, x1 = 0.79	711.31	998.04
308.15 K, x1 = 0.898	717.802	993.91
308.15 K, x1 = 0.951	721.377	992.13
308.15 K, x1 = 1	723.763	991.34
310.65 K, x1 = 0.049	678.79	1027.3
310.65 K, x1 = 0.091	679.994	1024.6
310.65 K, x1 = 0.197	683.293	1018.5
310.65 K, x1 = 0.296	686.637	1012.2
310.65 K, x1 = 0.394	690.27	1006.9
310.65 K, x1 = 0.507	694.875	1000.2
310.65 K, x1 = 0.603	699.077	995.9
310.65 K, x1 = 0.7	703.915	991.12
310.65 K, x1 = 0.79	708.777	986.9
310.65 K, x1 = 0.898	715.208	982.76
310.65 K, x1 = 0.951	718.741	981.15
310.65 K, x1 = 1	721.069	980
313.15 K, x1 = 0.049	676.674	1017
313.15 K, x1 = 0.091	677.857	1014.4
313.15 K, x1 = 0.197	681.108	1008
313.15 K, x1 = 0.296	684.416	1001.9
313.15 K, x1 = 0.394	687.984	996.15
313.15 K, x1 = 0.507	692.513	989.48
313.15 K, x1 = 0.603	696.659	984.99
313.15 K, x1 = 0.7	701.432	980.08
313.15 K, x1 = 0.79	706.232	975.76
313.15 K, x1 = 0.898	712.585	971.49
313.15 K, x1 = 0.951	716.075	969.68
313.15 K, x1 = 1	718.357	968.63
315.65 K, x1 = 0.049	674.551	1006.8
315.65 K, x1 = 0.091	675.716	1004
315.65 K, x1 = 0.197	678.915	997.54
315.65 K, x1 = 0.296	682.172	991.38
315.65 K, x1 = 0.394	685.682	985.48
315.65 K, x1 = 0.507	690.141	978.73
315.65 K, x1 = 0.603	694.229	974.09
315.65 K, x1 = 0.7	698.938	969.06
315.65 K, x1 = 0.79	703.665	964.56
315.65 K, x1 = 0.898	709.948	960.23
315.65 K, x1 = 0.951	713.392	958.31
315.65 K, x1 = 1	715.636	957.31
318.15 K, x1 = 0.049	672.418	996.53
318.15 K, x1 = 0.091	673.564	993.65
318.15 K, x1 = 0.197	676.709	987.14
318.15 K, x1 = 0.296	679.911	980.84
318.15 K, x1 = 0.394	683.366	974.83
318.15 K, x1 = 0.507	687.763	968.07
318.15 K, x1 = 0.603	691.788	963.2
318.15 K, x1 = 0.7	696.427	958.04
318.15 K, x1 = 0.79	701.097	953.55
318.15 K, x1 = 0.898	707.292	949.03
318.15 K, x1 = 0.951	710.693	947.02
318.15 K, x1 = 1	712.897	946.03
320.65 K, x1 = 0.049	670.282	986.33
320.65 K, x1 = 0.091	671.436	983.34
320.65 K, x1 = 0.197	674.493	976.73
320.65 K, x1 = 0.296	677.642	970.3
320.65 K, x1 = 0.394	681.043	964.2
320.65 K, x1 = 0.507	685.37	957.34
320.65 K, x1 = 0.603	689.334	952.36
320.65 K, x1 = 0.7	693.905	947.08
320.65 K, x1 = 0.79	698.504	942.46
320.65 K, x1 = 0.898	704.622	937.81
320.65 K, x1 = 0.951	707.978	935.72
320.65 K, x1 = 1	710.141	934.76
323.15 K, x1 = 0.049	668.138	976.18
323.15 K, x1 = 0.091	669.267	973.04
323.15 K, x1 = 0.197	672.267	966.34
323.15 K, x1 = 0.296	675.361	959.8
323.15 K, x1 = 0.394	678.707	953.63
323.15 K, x1 = 0.507	682.969	946.69
323.15 K, x1 = 0.603	686.867	941.57
323.15 K, x1 = 0.7	691.375	936.24
323.15 K, x1 = 0.79	695.909	931.51
323.15 K, x1 = 0.898	701.938	926.65
323.15 K, x1 = 0.951	705.25	924.5
323.15 K, x1 = 1	707.381	923.46
